From patent publication US5776734A, “DNA encoding the β subunit of a mammalian maxi-K potassium channel” (Merck & Co., Inc., priority 1996, dated 1998)

Experiments:
[1] = biological target: T1, purified maxi-K channel from bovine tracheal smooth muscle (Bos taurus, UniProt Q28067+Q28204); experiment: [125I]ChTX binding to purified maxi-K channel (ChTX receptor); conditions: for inhibition of 125I-ChTX binding to the purified maxi-K channel: in a manner similar to native tissue channels
T1 construct: Purified sarcolemmal membrane vesicles derived from bovine tracheal smooth muscle; from tissue; host or cells: bovine tracheal smooth muscle sarcolemmal membranes
T1 sequence (Q28204 whole entry): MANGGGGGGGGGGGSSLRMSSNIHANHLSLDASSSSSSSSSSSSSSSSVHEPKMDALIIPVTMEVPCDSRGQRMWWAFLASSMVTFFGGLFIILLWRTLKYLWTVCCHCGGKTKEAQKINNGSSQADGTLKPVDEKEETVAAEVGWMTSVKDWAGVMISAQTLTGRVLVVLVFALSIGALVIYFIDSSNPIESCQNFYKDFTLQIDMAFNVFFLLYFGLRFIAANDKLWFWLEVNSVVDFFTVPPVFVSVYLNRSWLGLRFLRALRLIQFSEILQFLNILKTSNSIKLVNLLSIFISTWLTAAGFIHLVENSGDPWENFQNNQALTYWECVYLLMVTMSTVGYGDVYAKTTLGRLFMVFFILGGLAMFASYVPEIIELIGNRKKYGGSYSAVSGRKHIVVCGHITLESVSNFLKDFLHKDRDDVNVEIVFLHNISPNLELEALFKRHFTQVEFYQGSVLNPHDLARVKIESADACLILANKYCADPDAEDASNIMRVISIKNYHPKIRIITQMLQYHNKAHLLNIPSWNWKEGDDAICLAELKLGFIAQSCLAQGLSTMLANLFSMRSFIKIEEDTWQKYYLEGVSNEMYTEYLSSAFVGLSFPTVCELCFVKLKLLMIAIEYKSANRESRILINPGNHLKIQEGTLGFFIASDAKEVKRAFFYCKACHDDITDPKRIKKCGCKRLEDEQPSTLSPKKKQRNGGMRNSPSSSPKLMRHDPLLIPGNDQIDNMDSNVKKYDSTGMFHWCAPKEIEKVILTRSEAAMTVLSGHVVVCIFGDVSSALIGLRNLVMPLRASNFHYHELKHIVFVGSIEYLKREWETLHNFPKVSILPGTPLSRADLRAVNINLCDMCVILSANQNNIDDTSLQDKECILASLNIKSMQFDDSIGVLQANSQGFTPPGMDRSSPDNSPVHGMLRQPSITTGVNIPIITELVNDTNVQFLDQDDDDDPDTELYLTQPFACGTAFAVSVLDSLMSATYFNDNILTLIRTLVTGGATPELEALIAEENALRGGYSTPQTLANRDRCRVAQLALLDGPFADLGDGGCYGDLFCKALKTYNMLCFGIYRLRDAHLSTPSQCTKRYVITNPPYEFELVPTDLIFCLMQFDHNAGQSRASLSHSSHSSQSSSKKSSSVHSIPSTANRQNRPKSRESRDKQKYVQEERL
T1 sequence (Q28067 2-191): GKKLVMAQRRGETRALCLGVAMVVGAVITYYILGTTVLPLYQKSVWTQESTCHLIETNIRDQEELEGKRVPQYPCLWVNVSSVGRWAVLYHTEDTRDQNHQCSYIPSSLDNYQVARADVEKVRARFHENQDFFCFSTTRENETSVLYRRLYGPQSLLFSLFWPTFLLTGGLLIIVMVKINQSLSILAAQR
Procedure: Purified sarcolemmal membrane vesicles derived from bovine tracheal smooth muscle were prepared as previously described (Slaughter, R. S., Shevell, J. L., Felix, J. P., Garcia, M. L., and Kaczorowski, G. J., Biochemistry 28, 3995-4002 (1989)). The interaction of [^125 I]ChTX (New England Nuclear Corporation) with maxi-K channels in bovine tracheal sarcolemmal membrane vesicles was monitored as outlined previously (Vazquez, J., Feigenbaum, P., Katz, G., King, V. F., Reuben, J. P., Roy-Contancin, L., Slaughter, R. S., Kaczorowski, G. J., and Garcia, M. L., J. Biol. Chem. 264, 20902-20909 (1989)). Binding of radiolabeled toxin to solubilized channels was measured by incubating aliquots of solubilized material in 0.05% digitonin with [^125 I]ChTX as described (Garcia-Calvo, M., Vazquez, J., Smith, M., Kaczorowski, G. J., and Garcia, M. L. Biochemistry 30, 11157-11164 (1991)). At the end of the incubation period, protein was precipitated by addition of 10% (w/v) PEG (Mw~8000) in the presence of […] and the precipitate was immediately collected onto GF/C glass fiber filters (Whatman) that had been presoaked in 0.5% polyethylenimine. Nonspecific binding was determined in the presence of 10 nM ChTX (Peninsula Laboratories). For each experiment, triplicate assays were routinely performed, and the data were averaged. The standard error of the mean of these replicates was typically less than 3%.

[2] = biological target: T2, 31,000 component (β subunit) of purified ChTX receptor (Bos taurus, UniProt Q28067+Q28204); experiment: Covalent crosslinking of [125I]ChTX to purified receptor with disuccinimidyl suberate, SDS-PAGE; format: binding, bovine; conditions: in the presence of disuccinimidyl suberate
T2 construct: Purified sarcolemmal membrane vesicles derived from bovine tracheal smooth muscle; from tissue; host or cells: bovine tracheal smooth muscle sarcolemmal membranes
T2 sequence (Q28204 whole entry): as the sequence (Q28204 whole entry) above
T2 sequence (Q28067 2-191): as the sequence (Q28067 2-191) above
Procedure: Fractions from the last sucrose density gradient centrifugation containing 31-158 ng of protein were dialyzed against 10 mM Na-borate, pH 9.0, 0.05% Triton X-100 and then reacted with 3.5 mCi of [^125 I]Bolton-Hunter reagent (2200 Ci/mmol; New England Nuclear Corporation) for 15 min on ice. The reaction was quenched by addition of Tris-HCl, pH 7.4 to a final concentration of 100 mM. Covalent incorporation of [^125 I]ChTX into the purified receptor was accomplished with the bifunctional reagent, disuccinimidyl suberate as previously described for crosslinking ChTX to its receptor in membranes (Garcia-Calvo, M., Vazquez, J., Smith, M., Kaczorowski, G. J., and Garcia, M. L. (1991) Biochemistry 30, 11157-11164). Briefly, the purified receptor preparation was incubated with 130 pM [^125 I]ChTX in 10 mM NaCl, 10 mM Taps-NaOH, pH 9.0, 0.1% digitonin, in the absence or presence of unlabeled ChTX, for two hours at room temperature. The solution was then adjusted to 0.2M NaCl and disuccinimidyl suberate was added to a final concentration of 0.18 mM. After incubation at room temperature for 1 min, the reaction was stopped by addition of Tris-HCl, pH 7.4 to a final concentration of 200 mM. Samples were dialyzed against 10 mM Tris-HCl, pH 7.4, 0.05% digitonin, concentrated 10 fold, and subjected to SDS-PAGE. […]

[3] = test system: maxi-K channel α subunit (mslo19) expressed in Xenopus oocytes; experiment: Two-electrode voltage clamp of Xenopus oocytes injected with α subunit cRNA alone; format: cell-based, mouse; conditions: for block of outward potassium currents: no concentration given; for block of outward currents in whole-oocyte voltage clamp: toxin at 10 to 30 nM
maxi-K channel α subunit (mslo19) expressed in Xenopus oocytes, sequence (Q08460 66-642 limits assumed): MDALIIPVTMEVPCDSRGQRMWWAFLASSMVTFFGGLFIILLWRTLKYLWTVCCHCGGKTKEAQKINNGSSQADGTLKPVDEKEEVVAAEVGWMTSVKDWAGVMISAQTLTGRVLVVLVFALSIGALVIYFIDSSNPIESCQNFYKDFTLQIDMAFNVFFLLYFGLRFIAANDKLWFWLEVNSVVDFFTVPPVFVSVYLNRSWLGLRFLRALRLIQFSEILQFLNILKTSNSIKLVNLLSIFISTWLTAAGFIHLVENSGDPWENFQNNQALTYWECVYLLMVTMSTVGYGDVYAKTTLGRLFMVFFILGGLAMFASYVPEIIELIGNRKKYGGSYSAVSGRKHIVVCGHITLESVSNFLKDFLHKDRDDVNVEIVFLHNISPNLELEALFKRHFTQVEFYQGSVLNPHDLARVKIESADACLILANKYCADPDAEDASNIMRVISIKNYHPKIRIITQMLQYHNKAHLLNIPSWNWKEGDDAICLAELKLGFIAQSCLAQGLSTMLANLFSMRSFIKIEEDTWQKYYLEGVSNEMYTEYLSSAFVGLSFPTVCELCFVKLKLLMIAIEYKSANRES
From the text: (§1) cDNAs encoding both the α and β subunits were used as templates for the production of cRNA. The α subunit cDNA was obtained from Leo Pallanck (Univ. of Wisconsin) and consisted of a full-length mouse brain cDNA (mslo19; GenBank Accession #U09383) in an RNA transcription vector, pGH. […] We therefore used standard techniques to modify the mslo19 cDNA, specifically by deleting the 5' non-coding sequence (bases 1 to 940), and replacing that sequence with a consensus eukaryotic translation initiation sequence: 5'-GCCGCCACC-3'. […] A fragment of the β subunit cDNA, including the entire open reading frame, was subcloned into a pGEM (Promega, inc.) vector for cRNA transcription. The cRNAs encoding both the α and β subunits were transcribed using the appropriate RNA polymerase as determined by the transcription vector (T7 for α, and SP6 for β) and capped in vitro using a kit (mCAP; Stratagene, inc), purified by size-exclusion chromatography using sepahadex G-50 spin columns (Bio-Rad, inc.), and analyzed for purity and length by agarose/formaldehyde gel electrophoresis according to established procedures. Following ethanol precipitation, cRNAs were resuspended in sterile, DEPC-treated water at a concentration of 0.1 to 1 μg/μl, and stored in 2 μl aliquots at -8° C.
Injection of mRNA or cRNA into Xenopus oocytes was done by a modification of established protocols (A. Coleman, Transcription and Translation: A Practical Approach. B. D. Hanes, S. J. Higgins, Eds., 1984); Y. Masu, et al., Nature 329, 836-838 (1987)). Oocytes were surgically removed from 0.17% tricaine anesthetized Xenopus laevis (Xenopus One). The excised ovarian lobes were teased apart with jeweler's forceps and then placed into OR-2 (82.5 mM NaCl, 2 mM KCl, 1 mM MgCl2, 5 mM HEPES, pH 7.4) containing 2 mg/ml collagenase β (Boehringer Mannhiem) for 2 hours at room temperature with a change of the buffer at 1 hour. Isolated oocytes were repeatedly washed in OR-2 until the supernatant remained clear. Stage 5 and 6 oocytes were selected and cultured overnight in supplemented OR-2 (OR-2 containing 1.8 mM CaCl2 and 0.5 mg/ml gentamycin. Oocytes were injected with 46 nl of RNA at a concentration of 0.1 to 1.0 mg/ml in H2 O. RNA was injected using a Nanoject automatic oocyte injector (Drummond Scientific) and injection needles were pulled from 3.5" Drummond capillaries using a Micropipette puller (Kopf Instruments).
Currents were recorded from Xenopus oocytes using two-electrode voltage-clamp methods to record currents from the entire oocyte and patch-clamp methods to record current from small patches of membrane excised from the oocytes. Recordings were done at room temperature and were performed 1 to 30 days after injection. […]

[4] = test system: maxi-K channel α and β subunits coexpressed in Xenopus oocytes; experiment: Two-electrode voltage clamp of Xenopus oocytes injected with α and β subunit cRNAs; format: cell-based, mouse α subunit, bovine β subunit; conditions: oocytes injected with both α and β subunit cRNAs
maxi-K channel α and β subunits coexpressed in Xenopus oocytes, sequence (Q08460 66-642 limits assumed): as above
maxi-K channel α and β subunits coexpressed in Xenopus oocytes, sequence (as listed by the source): as the sequence (Q28067 2-191) above
From the text: as §1, with “Following ethanol precipitation, cRNAs were resuspended in sterile, DEPC-treated water at a concentration of 0.1 to 1 μg/μl, and stored in 2 μl aliquots at -8° C.” left out
(§2) Currents were recorded from Xenopus oocytes using two-electrode voltage-clamp methods to record currents from the entire oocyte and patch-clamp methods to record current from small patches of membrane excised from the oocytes. […]

[5] = biological target: maxi-K channel α and β subunits coexpressed in Xenopus oocytes (UniProt Q08460+Q28067); experiment: Patch clamp of excised inside-out patches from oocytes injected with α and β subunit cRNAs; format: cell-based, mouse α subunit, bovine β subunit; conditions: both subunits; 100-300 nM applied to the intracellular face of the channel
maxi-K channel α and β subunits coexpressed in Xenopus oocytes (UniProt Q08460+Q28067), sequence (Q08460 whole entry): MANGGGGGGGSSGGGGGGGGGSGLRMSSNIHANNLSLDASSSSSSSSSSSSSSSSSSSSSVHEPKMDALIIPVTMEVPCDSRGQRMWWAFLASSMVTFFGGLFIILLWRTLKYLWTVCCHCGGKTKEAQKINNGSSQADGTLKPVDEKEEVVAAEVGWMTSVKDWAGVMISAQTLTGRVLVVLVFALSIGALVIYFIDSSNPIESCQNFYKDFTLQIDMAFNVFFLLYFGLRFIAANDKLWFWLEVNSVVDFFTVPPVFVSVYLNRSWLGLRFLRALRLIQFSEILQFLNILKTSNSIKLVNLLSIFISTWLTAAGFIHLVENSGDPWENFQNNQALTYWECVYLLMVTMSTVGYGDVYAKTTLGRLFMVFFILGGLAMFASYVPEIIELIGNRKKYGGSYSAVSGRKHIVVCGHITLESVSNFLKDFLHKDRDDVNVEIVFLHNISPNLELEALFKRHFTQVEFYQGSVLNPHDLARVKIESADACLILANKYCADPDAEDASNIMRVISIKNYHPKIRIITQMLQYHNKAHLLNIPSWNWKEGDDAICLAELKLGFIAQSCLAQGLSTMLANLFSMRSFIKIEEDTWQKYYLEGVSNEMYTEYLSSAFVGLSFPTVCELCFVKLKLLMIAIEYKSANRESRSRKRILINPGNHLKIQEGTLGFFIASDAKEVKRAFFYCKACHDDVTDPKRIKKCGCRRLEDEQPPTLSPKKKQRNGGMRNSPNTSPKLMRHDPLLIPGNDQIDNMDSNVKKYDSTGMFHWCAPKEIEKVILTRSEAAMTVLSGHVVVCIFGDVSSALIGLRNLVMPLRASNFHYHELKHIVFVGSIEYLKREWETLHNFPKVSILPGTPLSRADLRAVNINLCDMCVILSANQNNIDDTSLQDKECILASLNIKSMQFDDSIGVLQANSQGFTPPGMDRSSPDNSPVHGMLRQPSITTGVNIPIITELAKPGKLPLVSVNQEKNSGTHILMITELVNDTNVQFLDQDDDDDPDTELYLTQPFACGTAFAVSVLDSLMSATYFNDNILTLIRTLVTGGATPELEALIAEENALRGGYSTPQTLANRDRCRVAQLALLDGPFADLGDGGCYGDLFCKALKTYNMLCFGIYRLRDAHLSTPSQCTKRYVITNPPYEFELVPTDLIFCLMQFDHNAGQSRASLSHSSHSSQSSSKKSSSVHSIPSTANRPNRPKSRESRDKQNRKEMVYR
maxi-K channel α and β subunits coexpressed in Xenopus oocytes (UniProt Q08460+Q28067), sequence (Q28067 whole entry): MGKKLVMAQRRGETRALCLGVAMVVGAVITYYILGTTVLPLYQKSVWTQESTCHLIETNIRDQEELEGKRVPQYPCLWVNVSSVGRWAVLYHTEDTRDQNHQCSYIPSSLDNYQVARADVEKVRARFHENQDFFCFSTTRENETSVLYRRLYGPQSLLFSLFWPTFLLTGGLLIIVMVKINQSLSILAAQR
From the text: as §1, with “Following ethanol precipitation, cRNAs were resuspended in sterile, DEPC-treated water at a concentration of 0.1 to 1 μg/μl, and stored in 2 μl aliquots at -8° C.” left out
as §2

[6] = biological target: maxi-K channel α subunit (mslo19) expressed in Xenopus oocytes (Mus musculus, UniProt Q08460); experiment: Patch clamp of excised inside-out patches from oocytes injected with α subunit cRNA alone; format: cell-based; conditions: 100-500 nM
maxi-K channel α subunit (mslo19) expressed in Xenopus oocytes (Mus musculus, UniProt Q08460), sequence (Q08460 whole entry): as the sequence (Q08460 whole entry) above
From the text: as §1, with “Following ethanol precipitation, cRNAs were resuspended in sterile, DEPC-treated water at a concentration of 0.1 to 1 μg/μl, and stored in 2 μl aliquots at -8° C.” left out
as §2

[Ba] [barium]
inhibition of 125I-ChTX binding to the purified maxi-K channel [1]: inhibited

[Cs] [cesium]
inhibition of 125I-ChTX binding to the purified maxi-K channel [1]: inhibited

[K+] [potassium]
effect on [125I]ChTX labeling of the 31,000 component [2]: abolished | inhibition of 125I-ChTX binding to the purified maxi-K channel [1]: inhibited

^125 I-ChTX: radiolabeled toxin (New England Nuclear Corporation)
binding affinity for the purified channel compared with the native maxi-K channel ([1]; purified channel from bovine tracheal smooth muscle): similar

charybdotoxin [ChTX]
block of outward potassium currents [3]: blocked | block of outward currents in whole-oocyte voltage clamp [3]: blocked | inhibition of 125I-ChTX binding to the purified maxi-K channel [1]: inhibited | block of outward potassium currents [4]: blocked

dehydrosoyasaponin I [DHS-I]
channel activation [5]: fully activated | effect on channel open probability / patch currents [6]: not increased

iberiotoxin (QFTDVDCSVSKECWSVCKDLFGVDRGKCMGKKCRCYQ) [IbTX]
block of outward potassium currents [3]: blocked | block of outward currents in whole-oocyte voltage clamp [3]: blocked | effect on [125I]ChTX labeling of the 31,000 component [2]: abolished | inhibition of 125I-ChTX binding to the purified maxi-K channel [1]: inhibited | block of outward potassium currents [4]: blocked

limbatustoxin [LbTX]
inhibition of 125I-ChTX binding to the purified maxi-K channel [1]: inhibited
